Laboratory results reported in EP4582413A1, “ARYLTETRAHYDROPYRIDINE COMPOUND AND PEST CONTROL AGENT” (priority 2022, dated 2024).

What was measured:
Type in all cases: in vivo
[1] = tested on: brown rice planthoppers (Nilaparvata lugens); test: Insecticidal test for brown rice planthoppers; details: Nilaparvata lugens, 144 h; 500 ppm chemical solution, rice leaf sheaths soaked, third-instar larvae, six days, 25°C; read-out: death rate
In short: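 Rice leaf sheaths dipped ~10 s in 500 ppm compound solution (emulsion diluted in water with spreader), air-dried, then infested with five third-instar larvae per tube at 25 °C. Mortality scored after 6 days, death rate calculated, in duplicate.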

[2] = tested on: green peach aphids (Myzus persicae); test: Insecticidal test for green peach aphids; details: Myzus persicae, foliar, 144 h; 500 ppm chemical solution sprinkled (2.5 mg/cm^2), wingless imagoes on leaf disc, six days, 25°C; read-out: death rate
Procedure: Wet absorbent cotton was laid on each glass dish having an inner diameter of 3 cm, a Chinese olive leaf cut into a circle having a diameter of 3 cm was placed thereon, and four wingless green peach aphids (Myzus persicae) imagoes were released. After a day, a 10% by mass emulsion of the presently invented compound prepared according to the above formulation example for an emulsion was diluted with water containing a spreader to prepare a chemical solution having a concentration of 500 ppm. The chemical solution prepared was sprinkled (2.5 mg/cm^2) with a rotary tower sprinkler, and the dishes were capped and accommodated in a thermostatic room at 25°C. […] The test was carried out in duplicate.

[3] = tested on: western flower thrips (Frankliniella occidentalis); test: Insecticidal activity against western flower thrips; details: Frankliniella occidentalis, 48 h; 500 ppm chemical solution sprinkled (2.5 mg/cm^2), larvae on common bean leaf, after 2 days; read-out: death rate
In short: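 Bean leaf squares on wet filter paper inoculated with 20 larvae. Compound emulsion diluted with spreader-containing water to 500 ppm and sprayed at 2.5 mg/cm^2 by rotary tower. Run in duplicate.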

[4] = tested on: cat fleas (Ctenocephalides felis); test: whole plant or invertebrate; details: 72 h, read-out: death rate
In short: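 Glass containers (25 cm² inner surface) were coated with 250 µl of a 1000 ppm acetone solution, and the acetone was evaporated to leave a dry film. Five mixed-sex adult fleas were confined per container at 25°C. Mortality was scored after 3 days.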

[5] = tested on: diamondback moths (Plutella xylostella); test: Insecticidal test for diamondback moths; details: Plutella xylostella, 144 h; 500 ppm chemical solution, leaves soaked, third-instar larvae, six days, 25°C; read-out: death rate
In short: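 Leaves dipped about 10 s in a 500 ppm aqueous dilution of an emulsion formulation with spreader, then air-dried. Five third-instar larvae released per dish and held at 25 °C. Tested in duplicate.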

| Compound | mortality at 500 µg/mL [1] [%] | mortality at 500 µg/mL [2] [%] | mortality at 500 µg/mL [3] [%] | mortality at 10 µg/cm2 [4] [%] | mortality at 500 µg/mL [5] [%] |
| --- | --- | --- | --- | --- | --- |
| O=C(Nc1ccc(F)nc1)C1=C(O)CC(c2cnc(Cl)c(-c3ccccc3)c2)NC1=O (centres unmarked) [2-091] | ≥ 90 | ≥ 90 | ≥ 90 | ≥ 50 | ≥ 90 |
| O=C(Nc1ccc(F)cc1)C1=C(O)CC(c2nc(-c3ccc(F)cc3F)no2)NC1=O (centres unmarked) [3-131] | ≥ 90 | ≥ 90 | ≥ 90 | ≥ 50 | ≥ 90 |
| O=C(Nc1nccs1)C1=C(O)CC(c2cnc(C(F)(F)F)c(-c3ccc(F)nc3)c2)NC1=O (centres unmarked) [2-184] | ≥ 90 | ≥ 90 | ≥ 90 | ≥ 50 | ≥ 90 |
| O=C(Nc1ccc(Cl)cc1)C1=C(O)CC(c2cnc(Cl)c(-c3ccc(F)nc3)c2)NC1=O (centres unmarked) [2-035, 6'-chloro-N-(4-chlorophenyl)-6"-fluoro-4-hydroxy-6-oxo-1,2,3,6-tetrahydro-[2,3':5',3"-terpyridine]-5-carboxamide] | ≥ 90 | ≥ 90 | ≥ 90 | ≥ 50 | ≥ 90 |
| O=C(Nc1cc(F)ccn1)C1=C(O)CC(c2nc(-c3ccccc3)no2)NC1=O (centres unmarked) [3-055] | ≥ 90 | ≥ 90 | ≥ 90 | ≥ 50 | ≥ 90 |
| O=C(Nc1cnccn1)C1=C(O)CC(c2nc(-c3ccc(F)nc3)no2)NC1=O (centres unmarked) [3-257] | ≥ 90 | ≥ 90 | ≥ 90 | ≥ 50 | ≥ 90 |
| O=C(Nc1ccc(F)cn1)C1=C(O)CC(c2nc(-c3snc(Cl)c3Cl)no2)NC1=O (centres unmarked) [3-254] | ≥ 90 | ≥ 90 | ≥ 90 | ≥ 50 | ≥ 90 |
| O=C(Nc1ncc(Cl)cn1)C1=C(O)CC(c2cnc(Cl)c(-c3cccnc3)c2)NC1=O (centres unmarked) [2-100] | ≥ 90 | ≥ 90 | ≥ 90 | ≥ 50 | ≥ 90 |
| O=C(Nc1ccc(F)cn1)C1=C(O)CC(c2nc(-c3ccncc3Cl)no2)NC1=O (centres unmarked) [3-236] | ≥ 90 | ≥ 90 | ≥ 90 | ≥ 50 | ≥ 90 |
| Cc1cccnc1NC(=O)C1=C(O)CC(c2nc(-c3ccc(F)cc3F)no2)NC1=O (centres unmarked) [3-174] | ≥ 90 | ≥ 90 | ≥ 90 | ≥ 50 | ≥ 90 |
| O=C(Nc1nccs1)C1=C(O)CC(c2nc(-c3ccncc3F)no2)NC1=O (centres unmarked) [3-246] | ≥ 90 | ≥ 90 | ≥ 90 | ≥ 50 | ≥ 90 |
| O=C(Nc1cc(F)ccn1)C1=C(O)CC(c2nc(-c3ccccc3F)no2)NC1=O (centres unmarked) [3-058] | ≥ 90 | ≥ 90 | ≥ 90 | ≥ 50 | ≥ 90 |
| O=C(Nc1ccc(F)cc1)C1=C(O)CC(c2nc(-c3cccc(F)c3)no2)NC1=O (centres unmarked) [3-011] | ≥ 90 | ≥ 90 | ≥ 90 | ≥ 50 | ≥ 90 |
| O=C(Nc1ccc(F)cc1)C1=C(O)CC(c2nc(-c3cccc(Br)c3)no2)NC1=O (centres unmarked) [3-028] | ≥ 90 | ≥ 90 | ≥ 90 | ≥ 50 | ≥ 90 |
| O=C(Nc1cnc(Cl)cn1)C1=C(O)CC(c2nc(-c3ccnc(Cl)c3)no2)NC1=O (centres unmarked) [3-268] | ≥ 90 | ≥ 90 | ≥ 90 | ≥ 50 | ≥ 90 |
| O=C(Nc1ccc(F)cc1)C1=C(O)CC(c2nc(-c3ccc(F)c(F)c3)no2)NC1=O (centres unmarked) [3-027] | ≥ 90 | ≥ 90 | ≥ 90 | ≥ 50 | ≥ 90 |
| O=C(Nc1cc(F)ccn1)C1=C(O)CC(c2nc(-c3ccc(F)cc3)no2)NC1=O (centres unmarked) [3-056] | ≥ 90 | ≥ 90 | ≥ 90 | ≥ 50 | ≥ 90 |

| Compound | mortality at 500 µg/mL [1] [%] | mortality at 500 µg/mL [2] [%] | mortality at 500 µg/mL [3] [%] | mortality at 10 µg/cm2 [4] [%] | mortality at 500 µg/mL [5] [%] |
| --- | --- | --- | --- | --- | --- |
| O=C(Nc1cnc(Cl)cn1)C1=C(O)CC(c2nc(-c3ccc(F)nc3)no2)NC1=O (centres unmarked) [3-269] | ≥ 90 | ≥ 90 | ≥ 90 | ≥ 50 | ≥ 90 |
| O=C(Nc1ccc(F)cn1)C1=C(O)CC(c2nc(-c3ncco3)no2)NC1=O (centres unmarked) [3-265] | ≥ 90 | ≥ 90 | ≥ 90 | ≥ 50 | ≥ 90 |
| O=C(Nc1ccc(Cl)nc1)C1=C(O)CC(c2cnc(Cl)c(-c3ccc(F)nc3)c2)NC1=O (centres unmarked) [2-010] | ≥ 90 | ≥ 90 | ≥ 90 | ≥ 50 | ≥ 90 |
| O=C(Nc1cc(F)ccn1)C1=C(O)CC(c2nc(-c3cccc(F)c3F)no2)NC1=O (centres unmarked) [3-049] | ≥ 90 | ≥ 90 | ≥ 90 | ≥ 50 | ≥ 90 |
| O=C(Nc1ccc(F)cc1)C1=C(O)CC(c2cnc(Cl)c(-c3cncc(F)c3)c2)NC1=O (centres unmarked) [2-058] | ≥ 90 | ≥ 90 | ≥ 90 | ≥ 50 | ≥ 90 |
| O=C(Nc1cnccc1F)C1=C(O)CC(c2cnc(Cl)c(-c3cncc(Cl)c3)c2)NC1=O (centres unmarked) [2-146] | ≥ 90 | ≥ 90 | ≥ 90 | ≥ 50 | ≥ 90 |
| O=C(Nc1cnccc1Cl)C1=C(O)CC(c2nc(-c3ccncc3Cl)no2)NC1=O (centres unmarked) [3-228] | ≥ 90 | ≥ 90 | ≥ 90 | ≥ 50 | ≥ 90 |
| O=C(Nc1cc(Br)ccn1)C1=C(O)CC(c2nc(-c3ccncc3Cl)no2)NC1=O (centres unmarked) [3-232] | ≥ 90 | ≥ 90 | ≥ 90 | ≥ 50 | ≥ 90 |
| O=C(Nc1cnc(Br)cn1)C1=C(O)CC(c2cnc(Cl)c(-c3cccnc3)c2)NC1=O (centres unmarked) [2-099] | ≥ 90 | ≥ 90 | ≥ 90 | ≥ 50 | ≥ 90 |
| Cc1cccc(-c2cc(C3CC(O)=C(C(=O)Nc4ncccn4)C(=O)N3)cnc2Cl)c1 (centres unmarked) [2-271] | ≥ 90 | ≥ 90 | ≥ 90 | ≥ 50 | ≥ 90 |
| O=C(Nc1cncc(F)c1)C1=C(O)CC(c2cnc(Cl)c(-c3cnccc3F)c2)NC1=O (centres unmarked) [2-137] | ≥ 90 | ≥ 90 | ≥ 90 | ≥ 50 | ≥ 90 |
| O=C(Nc1cc(F)ccn1)C1=C(O)CC(c2nc(-c3c(F)cc(F)cc3F)no2)NC1=O (centres unmarked) [3-144] | ≥ 90 | ≥ 90 | ≥ 90 | ≥ 50 | ≥ 90 |
| Cc1cccc(-c2noc(C3CC(O)=C(C(=O)Nc4cc(F)ccn4)C(=O)N3)n2)c1 (centres unmarked) [3-053] | ≥ 90 | ≥ 90 |  | ≥ 50 | ≥ 90 |
| O=C(Nc1ncccc1F)C1=C(O)CC(c2cnc(Cl)c(-c3cnccc3F)c2)NC1=O (centres unmarked) [2-141] | ≥ 90 | ≥ 90 | ≥ 90 | ≥ 50 | ≥ 90 |
| O=C(Nc1ccc(F)cc1)C1=C(O)CC(c2ccc(C(F)(F)F)c(-c3ccncc3)c2)NC1=O (centres unmarked) [1-014] | ≥ 90 | ≥ 90 | ≥ 90 | ≥ 50 | ≥ 90 |
| O=C(Nc1ccccn1)C1=C(O)CC(c2nc(-c3ccc(F)cc3F)no2)NC1=O (centres unmarked) [3-132] | ≥ 90 | ≥ 90 | ≥ 90 | ≥ 50 | ≥ 90 |
